From patent US12590130B2, “Bipartite molecules and uses thereof in treating diseases associated with abnormal protein aggregates” (ACADEMIA SINICA, priority 2014, dated 2026)

Experiments:
R6/2 transgenic mice [1] = assay: Therapeutic effect in R6/2 transgenic mice (function, blood sugar, lifespan); type: in vivo, mouse
Source text: FIG. 6. 8R10Q ameliorated functional deterioration of R6/2 transgenic mice. Panel A: Longitudinal rotarod performance of wild type (WT) and R6/2 mice treated with PBS or 8R10Q peptide. Note the significant delay in motor deterioration of R6/2 mice treated with 8R10Q from 11 weeks of age. Panel B: T maze test of WT and R6/2 mice at 13 weeks of age. […] Panel C: The curves of blood sugar in serum of WT and R6/2 mice treated as indicated. […] Panel D: Lifespan of WT and R6/2 mice treated with PBS vs. 8R10Q. 100% of R6/2 mice died before 16 weeks of age. […] WT mice N=6/group; R6/2 mice N=10/group; statistical analysis performed with two way ANOVA (panels A and C), one way ANOVA (panel B), *p<0.05; **p<0.01; ***p<0.001, ns: not significant, and log-rank (Mantel-Cox) Test (D), ***p<0.0001.
To test the therapeutic effect of the peptide in vivo, the 8R10Q peptide was delivered 6 days/week into the wild type (WT) or R6/2 transgenic mice through intranasal aspiration or continuously with the Alzet osmotic minipumps into the neostriatum. […] In fact, the 8R10Q-treated R6/2 mice performed even better than the 11 week-old PBS-treated mice on average. […] The R6/2 mice were previously reported to have diabetes. Bjorkqvist et al., Hum Mol Genet (2005) 14:565-74; and Hunt et al., Experimental Brain Res (2005) 166:220-9. […] To sum up, the 8R10Q peptide effectively delayed the onset of disease and ameliorated the pathological phenotypes.

R6/2 transgenic mice [2] = assay: Neuropathology of R6/2 transgenic mice; type: in vivo, mouse
Source text: FIG. 7. Amelioration of neuronal damage of 13 week-old R6/2 mice by 8R10Q peptide. Panel A: Micrographs of the Nissl stain sections of cortex (CTX) of WT and R6/2 mice. The cortex and its thickness are highlighted by the dashed lines and red solid lines, respectively. Panel B: Quantitation of the cortical thickness. Note the decrease in cortical thickness in R6/2 mice which was reversed by the 8R10Q. […]: Micrographs (panel D) and (panel F) show the corresponding quantitation of the Nissl stained sections of the cortex and striatum, respectively. Note the decrease in the number of neurons, which was reversed by 8R10Q. N=3/group, each bar represents the average of 5 sections. Statistical analysis performed with one way ANOVA, *p<0.05; ***p<0.001, ns: not significant.
FIG. 8. Decrease in mHtt aggregates and glial pathology in 13-week-old R6/2 mice by 8R10Q peptide treatment. Panel A: Micrographs and corresponding quantitation (panel B) of the immunostained sections of cortex (CTX) and striatum with EM48 antibody. The brown dots show the mHtt aggregates. The left subpanels of panel B show the quantitative data with respect to the total area occupied by the aggregates, and the right, the intensity of individual aggregates. Panel C: Photographs of the immunofluorescent-stained sections of the cortex of R6/2 mice with anti-GFAP antibody. […] Panel E: Micrographs of the immunostained sections of the cortex (CTX) and striatum of WT and R6/2 mice with anti-Iba1 antibody. […] N=3/group. Each bar represented an average of 15 sections/mouse group. Statistics were performed with Student's t test for panels B and D, but with one way ANOVA, *p<0.05; **p<0.01; ***p<0.001, ns: not significant.
To correlate the beneficial effect with the aggregates of mHtt, immunohistochemistry was performed to calculate the areas occupied by the aggregates per unit area (150 μm^2). The method was selected because the frequent clustering of the aggregates into conglomerates rendered an accurate count of the aggregate number very difficult.

109QmHtt = assay: Filter trap assay of aggregated 109QmHtt in Neuro2a cells; type: cell-based
Experimental: FIG. 4. Testing the ability of therapeutic peptides to decrease mHtt aggregation in Neuro2a cells overexpressing mHtt. Panel A: Filter trap assays and corresponding quantitation of cells (panel B) treated as indicated at 8 hours (T1), 24 hours (T2), or both (T1+2) after transfection with the 109QmHtt construct. […] Panel C: Western blots and quantitation (panel D) of RIPA-soluble (sol) and -insoluble (ins) fractions of Neuro2a cells overexpressing 25QHtt or 109QmHtt and treated as indicated. […] Panel E: Western blot of the 109QmHtt in cells treated as indicated. Note that MG132 blocked the effect of 8R10Q peptide with respect to decreasing insoluble 109QmHtt. Panel F: Quantitation of ratio of 109QmHtt in cells treated MG132 (+) over DMSO (−) in relationship to peptides. Statistical analysis conducted with one way ANOVA, *<0.05, **<0.01, ***<0.001, ns: not significant.
Whether the peptides could modulate the aggregation propensity of mHtt was next investigated.

## H-RRRRRRRRWDQQQQQQQQQQ-NH2 [Peptide 8R10Q, NH2-(R)8-W-D-(Q)10-CONH2]
R6/2 transgenic mice [1]; 13 week-old R6/2 mice, intranasal
  T maze test memory: corrected the memory deficit
R6/2 transgenic mice [1]; Alzet osmotic minipumps into the neostriatum
  rotarod therapeutic effect, intracerebral delivery: very similar therapeutic effect to that given intranasally
R6/2 transgenic mice [1]; R6/2 mice
  diabetic phenotype, inflammatory index and abnormal liver function: decreased
R6/2 transgenic mice [1]; R6/2 mice, intracerebral
  diabetes phenotype: significantly corrected the diabetes phenotype
R6/2 transgenic mice [1]; R6/2 mice, intranasal
  blood sugar: delayed the rise and decreased the level of blood sugar
R6/2 transgenic mice [1]; R6/2 mice, intranasal, at 16 weeks of age
  prevention of premature death: 41%
R6/2 transgenic mice [1]; R6/2 mice, intranasal, deterioration significant from 11 weeks with PBS
  age until which motor deterioration (rotarod) was delayed: 13 weeks
R6/2 transgenic mice [1]; WT or R6/2 mice, intranasal or intracerebral route
  body weights: remained comparable to those treated with PBS
R6/2 transgenic mice [2]; 13 week-old R6/2 mice
  cortical thickness: prevented cortical thinning
R6/2 transgenic mice [2]; R6/2 mice, intranasal
  loss of neurons in cortex and striatum: significantly prevented
R6/2 transgenic mice [2]; cortex and striatum
  intensity of mHtt aggregates: significantly decreased
R6/2 transgenic mice [2]; cortex and striatum of R6/2 mice
  tau signals: significantly enhanced
R6/2 transgenic mice [2]; cortex and striatum, vs PBS, EM48 immunohistochemistry
  decrease in areas of mHtt aggregates: ~60%
R6/2 transgenic mice [2]; cortex of R6/2 mice
  numbers of GFAP-positive astrocytes: significant decrease
  numbers of Iba-1-positive microglia: significant decrease
109QmHtt; 20 μM peptide added at 8 hours (T1) or 8 plus 24 hours (T1+T2) after transfection, vs water or 8R
  aggregated 109QmHtt by filter trap assay: significantly reduced
109QmHtt; peptide added at 24 hours alone
  aggregated 109QmHtt by filter trap assay: no obvious effects
